Tests used:
[1] = system: Leukemia L1210; assay: Activity against Leukemia L1210, intraperitoneal, increase in life span of mice; assay type: in vivo, female mice (BDF1 family); settings: for Survivors after 60 days / Max. ILS % / Therapeutic ratio TR: ip; for Survivors after 60 days: 6-membered group; for Max. ILS %: 60-day observation, versus control; for Therapeutic ratio TR: O.D./ILS30; for ED (maximum ILS) / ED30: Mus musculus, L1210, ip; for ED (maximum ILS): read-out: O.D. (optimum dosage); for ED30: read-out: ILS30
How it was run: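 Dosing started 24 h after ip implantation of 1×10^5 L1210 cells into groups of 6 female BDF1 mice, by ip or oral route daily for 5 consecutive days. Survival was followed for 60 days; increase in life span was scored against untreated mice, with therapeutic ratio from optimum dose over ILS30 dose.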

[2] = system: Leukemia L1210; assay: Activity against Leukemia L1210, oral, increase in life span of mice; assay type: in vivo, female mice (BDF1 family); settings: for Survivors after 60 days / Max. ILS % / Therapeutic ratio TR: oral; for Survivors after 60 days: 6-membered group; for Max. ILS %: 60-day observation, versus control; for Therapeutic ratio TR: O.D./ILS30; for ED (maximum ILS) / ED30: Mus musculus, L1210; for ED (maximum ILS): read-out: O.D. (optimum dosage); for ED30: read-out: ILS30
Method: Tests were conducted in accordance with the method for measuring antitumor activity of National Cancer Center Tokyo (A, Hoshi et al, Farumashia 9 464 (1973)). Test compounds were each intraperitoneally (referred to as ip) or orally (referred to as op) administered once a day for 5 successive days to a 6-membered group of femal mice (BDF1 family, each weighing 20 to 23 g) 24 hours after 1×10^5 cells of Leukemia L1210 have been implantated into the abdominal cavities of the mice, and the effect was evaluated by comparing the survival days of treated groups with those of an untreated group of mice (control group) in 60-day observation. An increase percentage of life span (ILS%) was calculated from said average survival days compared with those of the control group. Further, therapeutic ratio (O.D./ILD30, referred to as T.R.) of each tested compound was calculated from the daily dosage of the compound necessary to increase said average survival days by 30% as compared with the control group (this dosage is referred to as ILS 30) and the daily dosage giving a maximum increase of life span to mice implantated with L1210 cells, namely an optimum dosage (referred to as O.D.). The results of five successive days intraperitoneal administrations of test compounds were shown in Tables I to III, and those of five successive oral administrations in Table IV.

[3] = Acute toxicity (LD50, Behrens-Karber method); assay type: in vivo, ICR mice; settings: ip, mortality during 30 days; for LD50 at 720 h: mouse, in vivo
Method: Test compounds, dissolved or suspended in 0.5% aqueous CMC, were each intraperitoneally administered to ICR mice in a dose of 0.1 ml per 10 g body weight. LD50 (mg/kg) value of each test compound was calculated from the mortality of mice during 30 days by the Behrens-Karber method.

[4] = ip once a day for 5 successive days, daily dosage giving maximum increase of life span
[5] = ip once a day for 5 successive days, daily dosage increasing average survival days by 30%
[6] = oral once a day for 5 successive days, daily dosage giving maximum increase of life span
[7] = oral once a day for 5 successive days, daily dosage increasing average survival days by 30%

Row | Compound | O.D. (optimum dosage) [1, 4] [mg/kg] | ILS30 [1, 5] [mg/kg] | Survivors after 60 days [1] | Max. ILS % [1] [%] | Therapeutic ratio TR [1] | O.D. (optimum dosage) [2, 6] [mg/kg] | ILS30 [2, 7] [mg/kg] | Survivors after 60 days [2] | Max. ILS % [2] [%] | Therapeutic ratio TR [2] | LD50 [3] [mg/kg] | ED (maximum ILS) [1, 4] [mg/kg] | ED30 [1, 5] [mg/kg] | ED (maximum ILS) [2, 6] [mg/kg] | ED30 [2, 7] [mg/kg] | LD50 at 720 h [3] [mg/kg]
1 | 3-tert-butyl-3-(1-methoxy-2-methoxyethyl α-D-glucopyranose-6-yl)-1-(2-chloroethyl)-1-nitrosourea [Compound 195] | 160 | 2.89 | 6/6 | > 700 | 55.4 | 200 | 8.51 | 5/6 | > 620 | 23.5 | 540 |  |  |  |  | 
2 | COC(C)CN(C[C@H]1O[C@H](OC(C)C)[C@H](O)[C@@H](O)[C@@H]1O)C(=O)N(CCCl)N=O (stereo partly drawn) [Compound 2, 3-(2-methoxy-n-propyl)-3-(isopropyl α-D-glucopyranose-6-yl)-1-(2-chloroethyl)-1-nitrosourea] |  |  | 6/6 | > 700 | 60.9 |  |  | 6/6 | > 700 | 24.5 |  | 140 | 2.3 | 180 | 7.35 | 420
3 | CCOCCN(C(=O)N(CCCl)N=O)C1C(OC2CCCCC2)OC(CO)C(O)C1O [Compound 64, 3-(2-ethoxyethyl)-3-(cyclohexyl α-D-glucopyranose-2-yl)-1-(2-chloroethyl)-1-nitrosourea] |  |  | 4/6 | > 450 | 42.0 |  |  | 4/6 | > 460 | 18.2 |  | 200 | 4.76 | 240 | 13.2 | 650
4 | CCCCOC1OC(CO)C(O)C(N(CC(C)OC)C(=O)N(CCCl)N=O)C1O [Compound 83, 3-(2-methoxy-n-propyl)-3-(n-butyl α-D-glucopyranose-3-yl)-1-(2-chloroethyl)-1-nitrosourea] |  |  | 4/6 | > 425 | 39.8 |  |  | 3/6 | > 360 | 14.3 |  | 200 | 5.03 | 240 | 16.8 | 665
5 | COCCN(C(=O)N(CCCl)N=O)C1C(O)C(CO)OC(OC2CCCCC2)C1O [Compound 89, 3-(2-methoxyethyl)-3-(cyclohexyl α-D-glucopyranose-3-yl)-1-(2-chloroethyl)-1-nitrosourea] |  |  | 6/6 | > 700 | 63.9 |  |  | 4/6 | > 450 | 16.8 |  | 170 | 2.66 | 210 | 12.5 | 690
6 | CCOCCO[C@H]1O[C@H](CN(C(=O)N(CCCl)N=O)C(C)C)[C@H](O)[C@H](O)[C@H]1O [Compound 113, 3-isopropyl-3-(2-ethoxyethyl α-D-galactopyranose-6-yl)-1-(2-chloroethyl)-1-nitrosourea] |  |  | 6/6 | > 700 | 67.3 |  |  | 6/6 | > 700 | 24.6 |  | 150 | 2.23 | 180 | 7.32 | 450
7 | CCOCCN(C(=O)N(CCCl)N=O)[C@H]1[C@@H](OCC(C)C)O[C@H](CO)[C@H](O)[C@@H]1O [Compound 123, 3-(2-ethoxyethyl)-3-(isobutyl α-D-galactopyranose-2-yl)-1-(2-chloroethyl)-1-nitrosourea] |  |  | 3/6 | > 365 | 40.2 |  |  | 3/6 | > 360 | 18.2 |  | 200 | 4.98 | 240 | 13.2 | 730
8 | COCC(C)N(C(=O)N(CCCl)N=O)[C@H]1[C@@H](O)[C@@H](CO)O[C@H](OCC(C)C)[C@@H]1O (stereo partly drawn) [Compound 126, 3-(1-methyl-2-methoxyethyl)-3-(isobutyl α-D-galactopyranose-3-yl)-1-(2-chloroethyl)-1-nitrosourea] |  |  | 3/6 | > 355 | 40.2 |  |  | 3/6 | > 350 | 15.6 |  | 250 | 6.22 | 240 | 15.4 | 785
9 | COCC(C)N(C[C@H]1O[C@H](OC2CCCCC2)[C@@H](O)[C@@H](O)[C@H]1O)C(=O)N(CCCl)N=O (stereo partly drawn) [Compound 145, 3-(1-methyl-2-methoxyethyl)-3-(cyclohexyl α-D-talopyranose-6-yl)-1-(2-chloroethyl)-1-nitrosourea] |  |  | 6/6 | > 700 | 58.4 |  |  | 4/6 | > 450 | 18.3 |  | 170 | 2.91 | 200 | 10.9 | 580
10 | COC(C)CN(C(=O)N(CCCl)N=O)[C@H]1CO[C@@H](OCC(C)C)[C@H](O)[C@H]1O (stereo partly drawn) [Compound 153, 3-(2-methoxy-n-propyl)-3-(isobutyl α-L-arabinopyranose-4-yl)-1-(2-chloroethyl)-1-nitrosourea] |  |  | 5/6 | > 625 | 58.4 |  |  | 4/6 | > 425 | 16.7 |  | 150 | 2.57 | 180 | 10.8 | 480
11 | O=NN(CCCl)C(=O)N(CC1CCCO1)[C@H]1[C@H](OC2CCCCC2)OC[C@H](O)[C@@H]1O (stereo partly drawn) [Compound 156, 3-tetrahydrofurfuryl-3-(cyclohexyl α-L-arabinopyranose-2-yl)-1-(2-chloroethyl)-1-nitrosourea] |  |  | 6/6 | > 700 | 61.2 |  |  | 4/6 | > 460 | 18.4 |  | 150 | 2.45 | 180 | 9.78 | 480
12 | COC(C)CN(C(=O)N(CCCl)N=O)[C@@H]1[C@@H](OCC(C)C)OC[C@@H](O)[C@H]1O (stereo partly drawn) [Compound 159, 3-(2-methoxy-n-propyl)-3-(isobutyl α-D-arabinopyranose-2-yl)-1-(2-chloroethyl)-1-nitrosourea] |  |  | 6/6 | > 700 | 61.3 |  |  | 5/6 | > 625 | 16.5 |  | 160 | 2.61 | 180 | 10.9 | 520

— patent publication US4593090A, “Novel nitrosourea compounds, method for preparing same, and pharmaceutical composition containing same” (Gogo Kimura, priority 1981, dated 1986)
